Experimental data reported in publication PMC4670083 (Nature medicine, 2015).

Target: T1, HPRT1 (Homo sapiens, UniProt P00492)
T1 sequence (P00492 2-218): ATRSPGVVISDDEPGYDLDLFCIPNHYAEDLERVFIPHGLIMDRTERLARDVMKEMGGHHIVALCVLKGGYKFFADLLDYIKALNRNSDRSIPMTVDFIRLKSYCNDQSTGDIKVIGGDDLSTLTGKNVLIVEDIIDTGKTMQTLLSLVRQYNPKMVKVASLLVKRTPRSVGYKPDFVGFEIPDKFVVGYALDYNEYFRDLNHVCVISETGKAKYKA
Test: biochemical

- IC50: 7.7 µM
SMILES: O=c1[nH]cnc2nc[nH]c12 [HX, hypoxanthine]
